Reference: patent publication US20230312493A1, “DEUTERATED AND TRITIATED N-(4,5-DIMETHYLTHIAZOLO-2(3H)-YLIDEN)-2,2,3,3-TETRAMETHYLCYCLOPROPANE-1-CARBOXAMIDE DERIVATIVES AND THE USE THEREOF” (HELMHOLTZ-ZENTRUM DRESDEN-ROSSENDORF E.V., priority 2020, published 2023)
pIC50, pKd, pKi: −log10 of the molar value.

Legend:
[1] = target: T1, CBR2 (Homo sapiens, UniProt P34972); experiment: CBR2 equilibrium dissociation constant Ki via Cheng-Prusoff equation; type: binding; settings: n = 3; read-out: CBR2 affinity Ki
Protocol: Using the Cheng-Prusoff equation
the CBR2 equilibrium dissociation constant Ki of JHU94620 was determined. Here, L designates the concentration of the free ligand. […] Replacing hydrogen atoms by […] shall not have any influence on the Ki value. This also applies to the replacement of hydrogen atoms by tritium ions.

[2] = target: T1, CBR2; experiment: homolog competition assay, homogenate of CHO cells stably transfected with human CBR2 receptor, radioligand [^18F]JHU94620-D8; type: binding; design: expressed in transfected cells; host or cells: CHO cells (stably transfected), used as homogenate
Protocol: The equilibrium dissociation constant KD was determined by means of a homolog competition assay. For that, a constant amount of binding protein (homogenate of CHO cells that were stably transfected with human CBR2 receptor; 2 Mio. cells/mL of the batch) was incubated with a constant amount of [^18F]JHU94620-D8 (0.101 nM in the batch) and an increasing concentration of JHU94620 (0.01 nM-10 µM in the batch) for 60 minutes at room temperature in binding buffer (50 mM TRIS-HCl, pH 7.4, with 5 mM of MgCl2, 1 mM EDTA, 1% BSA). Separation of receptor-bound and free radioligand was carried out by filtration over GF/B glass fiber filter incubated with 0.3% of polyethylene imine. Quantification of receptor-bound radioligand was carried out by measuring the filter-bound radioactivity in a gamma counter. Determination of the unspecific bonding of [^18F]JHU94620-D8 was carried out by co-incubation with CP55940 (10 µM in the batch), determination of the adsorption of the radioligand at the glass fiber filter was carried out by incubation without binding protein. […] CP55940 is a synthetic cannabinoid.

[3] = in vivo metabolite study (metabolic stability, radio-HPLC of brain homogenate and plasma); design: species or system female CD-1 mice; settings: for percentage of intact radiotracer in the brain / percentage of intact radiotracer in the plasma: female CD-1 mice, 30 min after the injection, radio-HPLC; for metabolic stability (comparison in words): in vivo, compared with another radiotracer
Protocol: The metabolic stability of [^18F]JHU94620-D4 was determined in accordance with the method described by Moldovan et al., J. Med. Chem. 2016, 59, 7840-7855. In the same way, the metabolic stability of JHU94620 and [^18F]JHU94620 was determined. The radio-HPLC chromatograms shown in FIGS. 3 and 4 were determined using a ReproSil-Pur C18 AQ column (250×4.6 mm, […]; eluting agent: 10-90-10% MeCN/20 mM NH4OAc; flow: 1 ml/min). JHU94620 has the following formula: […]
It is seen in FIG. 4 that in the in vivo metabolite study in female CD-1 mice the percentage of intact radiotracer [^18F]JHU94620-D4 in the brain was ~80% (radio-HPLC, extraction yield >97%) and in the plasma was ~15% (radio-HPLC, extraction yield >95%) 30 min after the injection.
In the in vivo metabolite study in female CD-1 mice in case of JHU94620 the percentage of intact radiotracer in the brain was 36% (radio-HPLC, n=3, extraction yield 93%) and in the plasma was 7% (radio-HPLC, n=3, extraction yield 94%) of the total activity 30 min after the injection.

[4] = background statement on prior-art compound; cited from earlier work

T1 sequence (P34972 whole entry): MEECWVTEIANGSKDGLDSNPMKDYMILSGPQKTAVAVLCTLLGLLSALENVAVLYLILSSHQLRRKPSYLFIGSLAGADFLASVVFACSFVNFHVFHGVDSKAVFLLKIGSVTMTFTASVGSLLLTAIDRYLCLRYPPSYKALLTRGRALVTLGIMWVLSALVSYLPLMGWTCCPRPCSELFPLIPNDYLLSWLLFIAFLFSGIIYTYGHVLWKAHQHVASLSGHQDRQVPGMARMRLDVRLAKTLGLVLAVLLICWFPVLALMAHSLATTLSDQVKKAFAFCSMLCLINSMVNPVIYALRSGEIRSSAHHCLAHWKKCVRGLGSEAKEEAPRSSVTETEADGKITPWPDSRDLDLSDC

SMILES | pKi [1] | pIC50 ([2]; competition of JHU94620 (0.01 nM-10 µM) with 0.101 nM [^18F]JHU94620-D8, 60 minutes, room temperature) | percentage of intact radiotracer in the brain [3] | percentage of intact radiotracer in the plasma [3] | metabolic stability (comparison in words) [3] | pKd ([2]; calculated as KD = IC50 - radioligand (simplified Cheng-Prusoff), read-out: equilibrium dissociation constant KD) | metabolic stability (prior art statement) [4]
Cc1s/c(=N\C(=O)C2C(C)(C)C2(C)C)n(CCCCF)c1C [JHU94620] | 9.40 | 8.55 | 36% | 7% | – | – | –
[2H]C([2H])([18F])CCC([2H])([2H])n1c(C)c(C)s/c1=N\C(=O)C1C(C)(C)C1(C)C [[^18F]JHU94620-D4, N-(3-(4-([^18F]fluoro)butyl-1,1,4,4-d4)-4,5-dimethylthiazole-2(3H)-ylidene)-2,2,3,3-tetramethylcyclopropane-1-carboxamide] | – | – | ~ 80% | ~ 15% | substantially higher metabolic stability than [^18F]JHU94620 | – | –
[2H]C([2H])([18F])C([2H])([2H])C([2H])([2H])C([2H])([2H])n1c(C)c(C)s/c1=N\C(=O)C1C(C)(C)C1(C)C [[^18F]JHU94620-D8, N-(3-(4-([^18F]fluoro)butyl-1,1,2,2,3,3,4,4-ds)-4,5-dimethylthiazole-2(3H)-ylidene)-2,2,3,3-tetramethylcyclopropane-1-carboxamide] | – | – | – | – | highly similar to that of [^18F]JHU94620-D4 | 8.57 | –
Cc1s/c(=N\C(=O)C2C(C)(C)C2(C)C)n(CCCC[18F])c1C [[^18F]JHU94620, N-(3-(4-([^18F]fluoro)butyl)-4,5-dimethylthiazole-2(3H)-ylidene)-2,2,3,3-tetramethylcyclopropane-1-carboxamide] | – | – | 38% | – | – | – | low metabolic stability
